Here are results for eight compounds from US20250074943A1, “DLL3 BINDING PEPTIDES AND USES THEREOF” (AMGEN INC., priority 2021, published 2025).

Read-outs that look alike come from different tables or passages of the source. Bridge positions count the residues as written; N and C are the ends. Peptide text beside a SMILES is read from it.

This test deals with T1, recombinant DLL3 ectodomain (rhDLL3-Fc) (Homo sapiens, UniProt Q9NYJ7).
T1 construct: The recombinant DLL3 ectodomain (rhDLL3-Fc) was biotinylated; Fc
T1 sequence (Q9NYJ7 27-492 limits assumed): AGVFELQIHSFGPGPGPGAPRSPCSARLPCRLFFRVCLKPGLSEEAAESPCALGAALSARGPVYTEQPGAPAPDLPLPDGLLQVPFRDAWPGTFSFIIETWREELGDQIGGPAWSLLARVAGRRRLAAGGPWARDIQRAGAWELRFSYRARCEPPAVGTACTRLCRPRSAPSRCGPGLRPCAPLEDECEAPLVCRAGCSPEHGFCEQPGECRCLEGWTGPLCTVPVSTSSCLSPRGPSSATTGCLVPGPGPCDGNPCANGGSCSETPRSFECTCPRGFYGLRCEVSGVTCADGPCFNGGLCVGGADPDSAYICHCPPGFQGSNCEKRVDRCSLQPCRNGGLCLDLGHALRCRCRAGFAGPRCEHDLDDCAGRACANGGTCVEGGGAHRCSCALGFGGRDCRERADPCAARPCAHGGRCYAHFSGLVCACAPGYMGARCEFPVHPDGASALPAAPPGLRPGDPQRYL
As to the kind of experiment: Binding kinetic assay using Bio-layer interferometry (BLI). Conditions: for binding mode to DLL3: peptides at 20, 4 and 0.8 μM, fit to 1:1 Langmuir binding model. The protocol: Binding kinetic assays were performed using Bio-layer interferometry (BLI) technology. The recombinant DLL3 ectodomain (rhDLL3-Fc) was biotinylated using EZ-Link Sulfo-NHS-LC-LC-Biotin Kit according to the manufacturer's protocol (Pierce by Thermo Fisher Scientific). The recombinant protein was incubated with an excess of NHS-LC-LC Biotin ester, in a molar ratio of 1:3 (protein: biotin), at 25° C. for 90 min. The un-reacted biotin ester was removed by subsequent buffer exchange on 0.5 ml Zeba spin desalting columns 7K MWCO (Pierce by Thermo Fisher Scientific).
(BLI is a label-free optical method that tracks binding on a fibre tip over time.)

Where [1] appears, read: Table 4, ± values from three independent experiments, read-out: RT (residence time) (converted).

As usually defined, the residence time is how long the partners stay bound on average. For orientation: Kd means the constant that tells how readily two partners part at equilibrium.

`CC(C)[C@H](NC(=O)[C@@H]1CSSC[C@H](NC(=O)CNC(=O)[C@H](CCCNC(=N)N)NC(=O)[C@H](Cc2ccccc2)NC(=O)[C@H](CCC(=O)O)NC(=O)[C@@H](NC(=O)[C@@H](NC(=O)[C@H](CCC(=O)O)NC(=O)[C@H](C)N)[C@@H](C)O)C(C)C)C(=O)N[C@@H]([C@@H](C)O)C(=O)NCC(=O)N[C@@H](CC(N)=O)C(=O)N[C@@H](C(C)C)C(=O)N[C@@H](Cc2ccc(O)cc2)C(=O)N[C@@H](CC(=O)O)C(=O)N[C@@H](Cc2c[nH]c3ccccc23)C(=O)N[C@@H]([C@@H](C)O)C(=O)N1)C(=O)N[C@@H](Cc1c[nH]c2ccccc12)C(N)=O` [PepSP1160] (H-AETVEFRGCTGNVYDWTCVW-NH2; disulfide 9-18): the “binding mode to DLL3” value is listed as “dose-response saturable binding”. Besides, under setting [1], the residence time is 0.783 min.

Regarding `CC(C)C[C@H](NC(=O)[C@@H]1CSSC[C@H](NC(=O)CNC(=O)[C@H](Cc2ccc(O)cc2)NC(=O)[C@H](Cc2ccccc2)NC(=O)[C@H](CCC(=O)O)NC(=O)[C@@H](NC(=O)[C@@H](NC(=O)[C@H](CCC(=O)O)NC(=O)[C@H](C)N)[C@@H](C)O)C(C)C)C(=O)N[C@@H](Cc2ccc(O)cc2)C(=O)NCC(=O)N[C@@H](CCC(=O)O)C(=O)N[C@@H](CCC(N)=O)C(=O)N[C@@H](CCC(=O)O)C(=O)N[C@@H](CCC(N)=O)C(=O)N[C@@H](Cc2c[nH]c3ccccc23)C(=O)N[C@@H]([C@@H](C)O)C(=O)N1)C(=O)N[C@@H](Cc1c[nH]c2ccccc12)C(N)=O` [PepSP1173] (H-AETVEFYGCYGEQEQWTCLW-NH2; disulfide 9-18), the “binding mode to DLL3” value was “dose-response saturable binding”. In addition, the residence time under setting [1] was 1.68 min.

Turning to `CC(C)[C@H](NC(=O)[C@@H]1CSSC[C@H](NC(=O)[C@H](Cc2ccc(O)cc2)NC(=O)[C@H](CC(=O)O)NC(=O)[C@H](Cc2ccccc2)NC(=O)[C@H](CCC(=O)O)NC(=O)[C@@H](NC(=O)[C@@H](NC(=O)[C@H](CCC(=O)O)NC(=O)[C@H](C)N)[C@@H](C)O)C(C)C)C(=O)N[C@@H](Cc2ccc(O)cc2)C(=O)NCC(=O)N[C@@H](CC(=O)O)C(=O)N[C@@H](C(C)C)C(=O)N[C@@H](CCC(=O)O)C(=O)N[C@@H](CCC(=O)O)C(=O)N[C@@H](Cc2c[nH]c3ccccc23)C(=O)N[C@@H]([C@@H](C)O)C(=O)N1)C(=O)N[C@@H](Cc1ccc(O)cc1)C(N)=O` [PepSP1166] (H-AETVEFDYCYGDVEEWTCVY-NH2; disulfide 9-18; N-terminus assumed), the “binding mode to DLL3” value was “dose-response saturable binding”. Under setting [1], the residence time was 0.8 min.

Consider `CC(C)[C@H](NC(=O)[C@@H](NC(=O)[C@H](CCC(=O)O)NC(=O)[C@H](C)N)[C@@H](C)O)C(=O)N[C@@H](CCC(=O)O)C(=O)N[C@@H](Cc1ccccc1)C(=O)N[C@@H](Cc1ccc(O)cc1)C(=O)NCC(=O)N[C@H]1CSSC[C@@H](C(=O)N[C@@H](C)C(=O)N[C@@H](Cc2c[nH]c3ccccc23)C(N)=O)NC(=O)[C@H]([C@@H](C)O)NC(=O)[C@H](Cc2ccc(O)cc2)NC(=O)[C@H](CC(=O)O)NC(=O)[C@H](Cc2c[nH]c3ccccc23)NC(=O)CNC(=O)[C@H](Cc2ccc(O)cc2)NC(=O)[C@H](Cc2ccc(O)cc2)NC(=O)[C@H](CCC(N)=O)NC1=O` [PepSP1176] (H-AETVEFYGCQYYGWDYTCAW-NH2; disulfide 9-18), for which the “binding mode to DLL3” value is “dose-response saturable binding”. Moreover, under setting [1], the residence time was 1.12 min.

Turning to `CC(C)[C@H](NC(=O)[C@@H](NC(=O)[C@H](CCC(=O)O)NC(=O)[C@H](C)N)[C@@H](C)O)C(=O)N[C@@H](CCC(=O)O)C(=O)N[C@@H](Cc1ccccc1)C(=O)N[C@@H](Cc1ccc(O)cc1)C(=O)NCC(=O)N[C@H]1CSSC[C@@H](C(=O)N[C@H](C(=O)N[C@@H](Cc2c[nH]c3ccccc23)C(N)=O)[C@@H](C)O)NC(=O)[C@H]([C@@H](C)O)NC(=O)[C@H](Cc2ccc(O)cc2)NC(=O)[C@H](CCC(=O)O)NC(=O)[C@H](Cc2ccc(O)cc2)NC(=O)[C@H](C)NC(=O)[C@H](CC(=O)O)NC(=O)CNC(=O)[C@H]([C@@H](C)O)NC1=O` [PepSP1147] (H-AETVEFYGCTGDAYEYTCTW-NH2; disulfide 9-18; N-terminus assumed), the “binding mode to DLL3” value is “dose-response saturable binding”. Also, under setting [1], the residence time was 1.09 min. In addition, the residence time (range over the seven peptides, read-out: residence time) lay within 1 to 3 min. Besides, the affinity entry (wider dose-response 10×KD to 0.1×KD) was “double-digit nM range”.

Regarding `CC(C)C[C@@H]1NC(=O)[C@@H](NC(=O)[C@H](Cc2ccc(O)cc2)NC(=O)[C@H](CC(=O)O)NC(=O)[C@H](Cc2ccccc2)NC(=O)[C@H](CCC(=O)O)NC(=O)[C@@H](NC(=O)[C@@H](NC(=O)[C@H](CCC(=O)O)NC(=O)[C@H](C)N)[C@@H](C)O)C(C)C)CSSC[C@@H](C(=O)N[C@@H](CCC(N)=O)C(=O)N[C@@H](CC(N)=O)C(N)=O)NC(=O)CNC(=O)[C@H](Cc2c[nH]c3ccccc23)NC(=O)[C@H](C)NC(=O)[C@H](CC(=O)O)NC(=O)[C@@H]2CCCN2C(=O)[C@H](C)NC(=O)[C@H](Cc2c[nH]c3ccccc23)NC1=O` [PepSP1159] (H-AETVEFDYCLWAPDAWGCQN-NH2; disulfide 9-18; N-terminus assumed), the “binding mode to DLL3” value is given as “dose-response saturable binding”. Besides, the residence time under setting [1] is 0.1 min.

On to `CC(C)[C@H](NC(=O)[C@@H](NC(=O)[C@H](CCC(=O)O)NC(=O)[C@H](C)N)[C@@H](C)O)C(=O)N[C@@H](CCC(=O)O)C(=O)N[C@@H](Cc1ccccc1)C(=O)N[C@@H](CC(=O)O)C(=O)NCC(=O)N[C@H]1CSSC[C@@H](C(=O)N[C@@H](Cc2c[nH]c3ccccc23)C(=O)N[C@@H](Cc2c[nH]c3ccccc23)C(N)=O)NC(=O)[C@H]([C@@H](C)O)NC(=O)[C@H](Cc2c[nH]c3ccccc23)NC(=O)[C@H](CCC(=O)O)NC(=O)[C@H](Cc2ccc(O)cc2)NC(=O)[C@H](Cc2c[nH]c3ccccc23)NC(=O)[C@H](CC(=O)O)NC(=O)CNC(=O)[C@H](CCCCN)NC1=O` [PepSP1164] (H-AETVEFDGCKGDWYEWTCWW-NH2; disulfide 9-18), for which the “binding mode to DLL3” value was “dose-response saturable binding”. Further, the Kd (Table 4, global fitting 1:1 Langmuir, koff vs kon ratio, ± values from three independent experiments) was 125 nM. Further, the residence time under setting [1] is 2.08 min.

`CSCC[C@@H]1NC(=O)[C@H](CO)NC(=O)[C@@H](NC(=O)CNC(=O)[C@H](Cc2ccc(O)cc2)NC(=O)[C@H](Cc2ccccc2)NC(=O)[C@H](CCC(=O)O)NC(=O)[C@@H](NC(=O)[C@@H](NC(=O)[C@H](CCC(=O)O)NC(=O)[C@H](C)N)[C@@H](C)O)C(C)C)CSSC[C@@H](C(=O)N[C@@H](C)C(=O)N[C@@H](Cc2c[nH]c3ccccc23)C(N)=O)NC(=O)[C@H]([C@@H](C)O)NC(=O)[C@H](C(C)C)NC(=O)CNC(=O)[C@H](CCCNC(=N)N)NC(=O)[C@H](Cc2c[nH]c3ccccc23)NC(=O)[C@H](CC(=O)O)NC1=O` [PepSP1158] (H-AETVEFYGCSMDWRGVTCAW-NH2; disulfide 9-18): the “binding mode to DLL3” value is “dose-response saturable binding”. In addition, the residence time under setting [1] is 0.517 min.
